Reference: patent publication US12371454B2, “Cyclic peptide compound having Kras inhibitory action” (priority 2019, dated 2025)
Starred links: 1 amine or outer side, 2 acyl side, 3 side chain; linkers in the order of their positions; H or OH if unused. Positions of bridges follow the written chain, without caps; N, C: chain ends. Non-standard residues stand in square brackets, D forms with d. Residues, ends and D or L forms follow the SMILES beside them. *: point of attachment. NMeAbu(3,3-F2-piperidino) = CN[C@@H](CCN1CCCC(F)(F)C1)C(=O)O; hPhe(3-Cl-4-CF3) = N[C@@H](CCc1ccc(C(F)(F)F)c(Cl)c1)C(=O)O; NMePhe(4-CN) = CN[C@@H](Cc1ccc(C#N)cc1)C(=O)O; 3Oxa8azabicyclo(3.2.1)octane = C1CC2COCC1N2*; NMeAbu(4,4,4-F3) = CN[C@@H](CC(F)(F)F)C(=O)O; NMePhe(3-Me) = CN[C@@H](Cc1cccc(C)c1)C(=O)O; NMePhe(4-Me) = CN[C@@H](Cc1ccc(C)cc1)C(=O)O; NMePhe(4-F) = CN[C@@H](Cc1ccc(F)cc1)C(=O)O; hPhe(4-Cl) = N[C@@H](CCc1ccc(Cl)cc1)C(=O)O; NMedβ3hAla = C[C@H](CC(=O)[*:2])N(C)[*:1]; NMeAla(cPent) = CN[C@@H](CC1CCCC1)C(=O)O; NMeGly(cPent) = CN[C@H](C(=O)O)C1CCCC1; NMeAla(cPr) = CN[C@@H](CC1CC1)C(=O)O; NMeGly(cBu) = CN[C@H](C(=O)O)C1CCC1; NMeCha = CN[C@@H](CC1CCCCC1)C(=O)O; NMeCba = CN[C@@H](CC1CCC1)C(=O)O; NMeChg = CN[C@H](C(=O)O)C1CCCCC1; NMeF = CN[C@@H](Cc1ccccc1)C(=O)O; NMeI = CC[C@H](C)[C@H](NC)C(=O)O; NMeD = CN[C@@H](CC(=O)O)C(=O)O; NMeL = CN[C@@H](CC(C)C)C(=O)O; NMeV = CN[C@H](C(=O)O)C(C)C; d(β3hA) = C[C@@H](N)CC(=O)O; NMeS = CN[C@@H](CO)C(=O)O; Morpholide = C1CN(*)CCO1; NMeA = CN[C@@H](C)C(=O)O; Piperidide = C1CCN(*)CC1; Ac5c = NC1(C(=O)O)CCCC1; Aze = O=C(O)[C@@H]1CCN1; Cyclobutyl = C1CC(*)C1; Sar = CNCC(=O)O; Propyl = CCC*

Columns and labels:
[1] = biological target: T1, Kras and SOS1 (biotin-tagged human Kras loaded with GDP, His-tagged human SOS1) (Homo sapiens, UniProt P01116, G12D); assay: Protein-protein interaction inhibition between Kras and SOS1 (KrasGl2D-SOS PPI) using AlphaScreen; type: binding; settings: AlphaScreen; biotin-tagged human Kras loaded with GDP, His-tagged human SOS1; read-out: KRAS G12D-SOS PPI IC50
T1 construct: made in house; host or cells: E. coli (stated for Kras only)
Outline: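 Binding between SOS1 and Kras is detected as bead-proximity luminescence: illuminate Ni-conjugated donors (680 nm), collect 520-620 nm emission from streptavidin-conjugated acceptors; Kras carries biotin and GDP loaded after purification, SOS1 carries a His tag.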

[2] = test system: Human pancreatic cancer cell line AsPC-1; assay: Measurement of AsPC-1 cell growth inhibition (AsPC-1 CGI); type: cell-based; settings: 96 h
Outline: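 AsPC-1 cells in 15% FBS RPMI-1640 were exposed to test compound for 96 hours at 37° C, with CellTiter-Glo as endpoint.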

T1 sequence (P01116 1-188 isoform P01116-2 G12D): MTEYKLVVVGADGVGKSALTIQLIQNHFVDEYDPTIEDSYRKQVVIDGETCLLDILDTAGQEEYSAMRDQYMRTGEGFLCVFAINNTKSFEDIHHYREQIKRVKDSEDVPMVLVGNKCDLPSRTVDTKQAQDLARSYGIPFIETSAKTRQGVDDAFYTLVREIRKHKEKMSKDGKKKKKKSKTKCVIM

With `CC[C@H](C)[C@@H]1NC(=O)[C@H](CC(C)C)N(C)C(=O)C[C@@H](C(=O)N(C)C)N(C)C(=O)[C@H](C2CCCC2)N(C)C(=O)C2(CCCC2)NC(=O)[C@H](Cc2ccccc2)N(C)C(=O)[C@H](CCc2ccc(C(F)(F)F)c(Cl)c2)NC(=O)CN(C)C(=O)[C@H](CC2CCCCC2)N(C)C(=O)[C@@H]2CCN2C(=O)[C@H](C)N(C)C1=O` [Compound 854] ([NMeL]I[NMeA][Aze][NMeCha][Sar][hPhe(3-Cl-4-CF3)][NMeF][Ac5c][NMeGly(cPent)][NMeD]-NMe2; lactam N-11) the IC50 [1] was 11 nM and the IC50 [2] was 100 to 500 nM.

For `CC[C@H](C)[C@@H]1NC(=O)[C@H](CC(C)C)N(C)C(=O)C[C@@H](C(=O)N2CCCCC2)N(C)C(=O)[C@H](C(C)C)N(C)C(=O)C2(CCCC2)NC(=O)[C@@H]2CCCN2C(=O)[C@H](CCc2ccc(C(F)(F)F)c(Cl)c2)NC(=O)CN(C)C(=O)[C@H](COC2CCC2)N(C)C(=O)[C@@H]2CCN2C(=O)[C@H](C)N(C)C1=O` [Compound 880] ([NMeL]I[NMeA][Aze][NMeS](Cyclobutyl)[Sar][hPhe(3-Cl-4-CF3)]P[Ac5c][NMeV][NMeD]-Piperidide; lactam N-11), the IC50 [1] was 2.9 nM and the IC50 [2] was 100 to 500 nM.

In the case of `CC[C@H](C)[C@@H]1NC(=O)[C@H](CC(C)C)N(C)C(=O)C[C@@H](C)N(C)C(=O)[C@H](C(C)C)N(C)C(=O)C2(CCCC2)NC(=O)[C@@H]2CCCN2C(=O)[C@H](CCc2ccc(C(F)(F)F)c(Cl)c2)NC(=O)CN(C)C(=O)[C@H](Cc2ccc(C#N)cc2)N(C)C(=O)CN(C)C(=O)CN(C)C1=O` [Compound 888] (cyclo([Ac5c][NMeV][NMedβ3hAla][NMeL]I[Sar][Sar][NMePhe(4-CN)][Sar][hPhe(3-Cl-4-CF3)]P)), the IC50 [1] is reported as 3.9 nM and the IC50 [2] is reported as 100 to 500 nM.

`CC[C@H](C)[C@@H]1NC(=O)[C@H](C2CCC2)N(C)C(=O)C[C@@H](C(=O)N2CCOCC2)N(C)C(=O)[C@H](C2CCCCC2)N(C)C(=O)C2(CCCC2)NC(=O)[C@@H]2CCCN2C(=O)[C@H](CCc2ccc(C(F)(F)F)c(Cl)c2)NC(=O)CN(C)C(=O)[C@H](CC2CCCCC2)N(C)C(=O)CN(C)C(=O)CN(C)C1=O` [Compound 890] ([NMeGly(cBu)]I[Sar][Sar][NMeCha][Sar][hPhe(3-Cl-4-CF3)]P[Ac5c][NMeChg][NMeD]-Morpholide; lactam N-11) showed an IC50 [1] of 0.47 nM and an IC50 [2] of 20 to 50 nM.

`CC[C@H](C)[C@@H]1NC(=O)[C@H](CC(C)C)N(C)C(=O)C[C@@H](C(=O)N2CCCCC2)N(C)C(=O)[C@H](C(C)C)N(C)C(=O)C2(CCCC2)NC(=O)[C@@H]2CCCN2C(=O)[C@H](CCc2ccc(Cl)cc2)NC(=O)CN(C)C(=O)[C@H](CC2CCCCC2)N(C)C(=O)CN(C)C(=O)CN(C)C1=O` [Compound 893] ([NMeL]I[Sar][Sar][NMeCha][Sar][hPhe(4-Cl)]P[Ac5c][NMeV][NMeD]-Piperidide; lactam N-11) showed an IC50 [1] of 21 nM and an IC50 [2] of 100 to 500 nM.

`CC[C@H](C)[C@@H]1NC(=O)[C@H](CC2CCCC2)N(C)C(=O)C[C@@H](C)NC(=O)[C@H](C(C)C)N(C)C(=O)C2(CCCC2)NC(=O)[C@@H]2CCCN2C(=O)[C@H](CCc2ccc(C(F)(F)F)c(Cl)c2)NC(=O)CN(C)C(=O)[C@H](CC2CCCCC2)N(C)C(=O)CN(C)C(=O)CN(C)C1=O` [Compound 901] (cyclo([Ac5c][NMeV][d(β3hA)][NMeAla(cPent)]I[Sar][Sar][NMeCha][Sar][hPhe(3-Cl-4-CF3)]P)) gave an IC50 [1] of 35 nM and an IC50 [2] of 100 to 500 nM.

`CC[C@H](C)[C@@H]1NC(=O)[C@H](CC(C)C)N(C)C(=O)C[C@@H](C)N(C)C(=O)[C@H]([C@@H](C)CC)N(C)C(=O)C2(CCCC2)NC(=O)[C@@H]2CCCN2C(=O)[C@H](CCc2ccc(C(F)(F)F)c(Cl)c2)NC(=O)CN(C)C(=O)[C@H](CC2CCCCC2)N(C)C(=O)CN(C)C(=O)CN(C)C1=O` [Compound 904] (cyclo([Ac5c][NMeI][NMedβ3hAla][NMeL]I[Sar][Sar][NMeCha][Sar][hPhe(3-Cl-4-CF3)]P)) showed an IC50 [1] of 7.3 nM and an IC50 [2] of 50 to 100 nM.

For `CC[C@H](C)[C@@H]1NC(=O)[C@H](CC(C)C)N(C)C(=O)C[C@@H](C(=O)N(C)C)N(C)C(=O)[C@H](C2CCCC2)N(C)C(=O)C2(CCCC2)NC(=O)[C@H](CCN2CCCC(F)(F)C2)N(C)C(=O)[C@H](CCc2ccc(C(F)(F)F)c(Cl)c2)NC(=O)CN(C)C(=O)[C@H](CC2CCCCC2)N(C)C(=O)[C@@H]2CCN2C(=O)[C@H](C)N(C)C1=O` [Compound 910] ([NMeL]I[NMeA][Aze][NMeCha][Sar][hPhe(3-Cl-4-CF3)][NMeAbu(3,3-F2-piperidino)][Ac5c][NMeGly(cPent)][NMeD]-NMe2; lactam N-11), the IC50 [1] was 4.3 nM and the IC50 [2] was 100 to 500 nM.

In the case of `CC[C@H](C)[C@@H]1NC(=O)[C@H](CC2CCC2)N(C)C(=O)C[C@@H](C(=O)N2CCCCC2)N(C)C(=O)[C@H](C(C)C)N(C)C(=O)C2(CCCC2)NC(=O)[C@@H]2CCCN2C(=O)[C@H](CCc2ccc(C(F)(F)F)c(Cl)c2)NC(=O)CN(C)C(=O)[C@H](CC2CCCCC2)N(C)C(=O)CN(C)C(=O)CN(C)C1=O` [Compound 911] ([NMeCba]I[Sar][Sar][NMeCha][Sar][hPhe(3-Cl-4-CF3)]P[Ac5c][NMeV][NMeD]-Piperidide; lactam N-11), the IC50 [1] is reported as 4.5 nM and the IC50 [2] is reported as 100 to 500 nM.

`CC[C@H](C)[C@@H]1NC(=O)[C@H](CC(C)C)N(C)C(=O)C[C@@H](C(=O)N(C)C)N(C)C(=O)[C@H]([C@@H](C)CC)N(C)C(=O)C2(CCCC2)NC(=O)[C@H](Cc2cccc(C)c2)N(C)C(=O)[C@H](CCc2ccc(C(F)(F)F)c(Cl)c2)NC(=O)CN(C)C(=O)[C@H](Cc2ccc(C)cc2)N(C)C(=O)[C@@H]2CCN2C(=O)[C@H](C)N(C)C1=O` [Compound 912] ([NMeL]I[NMeA][Aze][NMePhe(4-Me)][Sar][hPhe(3-Cl-4-CF3)][NMePhe(3-Me)][Ac5c][NMeI][NMeD]-NMe2; lactam N-11) showed an IC50 [1] of 12 nM and an IC50 [2] of 50 to 100 nM.

In the case of `CC[C@H](C)[C@@H]1NC(=O)[C@H](CC(C)C)N(C)C(=O)C[C@@H](C(=O)N(C)C)N(C)C(=O)[C@H](C2CCCC2)N(C)C(=O)C2(CCCC2)NC(=O)[C@H](Cc2ccc(F)cc2)N(C)C(=O)[C@H](CCc2ccc(C(F)(F)F)c(Cl)c2)NC(=O)CN(C)C(=O)[C@H](CC2CCCCC2)N(C)C(=O)[C@@H]2CCN2C(=O)[C@H](C)N(C)C1=O` [Compound 920] ([NMeL]I[NMeA][Aze][NMeCha][Sar][hPhe(3-Cl-4-CF3)][NMePhe(4-F)][Ac5c][NMeGly(cPent)][NMeD]-NMe2; lactam N-11), the IC50 [1] is reported as 15 nM and the IC50 [2] is reported as 100 to 500 nM.

Work on `CC[C@H](C)[C@@H]1NC(=O)[C@H](CC(C)C)N(C)C(=O)C[C@@H](C)N(C)C(=O)[C@H](C(C)C)N(C)C(=O)C2(CCCC2)NC(=O)[C@@H]2CCCN2C(=O)[C@H](CCc2ccc(C(F)(F)F)c(Cl)c2)NC(=O)CN(C)C(=O)[C@H](CC2CC2)N(C)C(=O)CN(C)C(=O)CN(C)C1=O` [Compound 930] (cyclo([Ac5c][NMeV][NMedβ3hAla][NMeL]I[Sar][Sar][NMeAla(cPr)][Sar][hPhe(3-Cl-4-CF3)]P)) yielded an IC50 [1] of 39 nM and an IC50 [2] of 100 to 500 nM.

Compound `CCCOC[C@H]1C(=O)N(C)CC(=O)N[C@@H](CCc2ccc(C(F)(F)F)c(Cl)c2)C(=O)N2CCC[C@H]2C(=O)NC2(CCCC2)C(=O)N(C)[C@@H](C2CCCCC2)C(=O)N(C)[C@H](C(=O)N2C3CCC2COC3)CC(=O)N(C)[C@@H](CC(F)(F)F)C(=O)N[C@@H]([C@@H](C)CC)C(=O)N(C)CC(=O)N(C)CC(=O)N1C` [Compound 943] ([NMeAbu(4,4,4-F3)]I[Sar][Sar][NMeS](Propyl)[Sar][hPhe(3-Cl-4-CF3)]P[Ac5c][NMeChg][NMeD]-{3Oxa8azabicyclo(3.2.1)octane}; lactam N-11) has an IC50 [1] of 0.83 nM and an IC50 [2] of 100 to 500 nM.
